From patent US9345667B2, “Particles having hydrophobic material therein” (Australian Nuclear Science and Technology Organisation, priority 2005, dated 2016)
Values after ≈ are worked out from the molar mass of the structure shown. One block for each compound: values may come before it.

Columns and labels:
[1] = UV/Vis of retinol during release from retinol-doped silica particles; assay type: physicochemical; conditions: release in anhydrous ethanol
[2] = Release of SB-35 dye from silica microparticles (UV/Vis); assay type: physicochemical; conditions: in cyclohexane, compared with dodecane
Experimental: 1. The encapsulation efficiency and release rate of the hydrophobic dye were determined by UV/Vis spectroscopy (Cary 50). The encapsulation efficiency was estimated by two methods. The first one was an indirect measurement, which consisted of measuring the U/Vis absorbance of the cyclohexane/Span 80 solutions after the silica particles had been filtered out. The encapsulation efficiency of the dye was calculated by subtracting the dye measured in the outer oil phase from the original dye concentration introduced into the system. A standard calibration curve was generated by adding accurate amounts of dye into the outer oil phase, with identical composition and concentration as the one used for the preparation of the corresponding samples. The second “direct” method consisted of measuring the release of SB-35 from the silica particles in a solvent such as ethanol, cyclohexane or dodecane, until the absorbance was stable. A standard calibration curve was produced by using the identical composition and concentration as the sample release media. (The surfactant content was estimated by the TGA/DTA result). The absorbance was measured at different intervals of time while stirring the product to produce the dye release curve.
The faster release rate observed in the case of the cyclohexane may be explained by the higher lipophilicity of the cyclohexane. […]

[3] = cited from earlier work

- retinol UV/Vis band during release [1]: disappeared
SMILES: CC1=C(/C=C/C(C)=C/C=C/C(C)=C/CO)C(C)(C)CCC1 [retinol]

SMILES: CCCCNc1ccc(NCCCC)c2c1C(=O)c1ccccc1C2=O [SB-35, Solvent Blue 35]
- release rate of SB-35 from silica microparticles [2]: faster than in dodecane

SMILES: CN(C)C(=O)Nc1ccc(Cl)c(Cl)c1 [diuron, 3-(3,4-Dichlorophenyl)-1,1-dimethylurea]
- solubility in methanol [3]: 43 mg/mL (≈ 184 mM)
